# Measured values published in PMC3797794, “Identification and Characterization of a Novel Trehalose Synthase Gene Derived from Saline-Alkali Soil Metagenomes” (PLoS ONE, 2013).
# Test system: T1, TreS (recombinant trehalose synthase)
# T1 construct: pET-22b(+), E. coli BL21(DE3), Ni-NTA; His6 tag kept (C-terminal per Methods, N-terminal with 13 extra residues per Results)
# Test: HPLC-RID of sugars, Lineweaver-Burk
# Type: biochemical, uncultured bacterium
# Details: pH 9.0, 45 °C, 30 min, 200 mM sodium phosphate
row,Km,Structure (SMILES)
1,9 ± 1.2 mM,OC[C@H]1O[C@H](O[C@H]2[C@H](O)[C@@H](O)C(O)O[C@@H]2CO)[C@H](O)[C@@H](O)[C@@H]1O (some centres unmarked) [maltose]
2,64 ± 3.5 mM,OC[C@H]1O[C@H](O[C@H]2O[C@H](CO)[C@@H](O)[C@H](O)[C@H]2O)[C@H](O)[C@@H](O)[C@@H]1O [trehalose]
